In experiment [1] the test system is HT29 cells. The experiment in a line: Count of alive cells after treatment. Format: cell-based, human. Conditions: HT29, 50 μM of 9-HSA, 24 h. The procedure: Briefly 5.0×10^3 human colon adenocarcinoma cell line HT29 cells were seeded in 200 μl of growth medium in replicate (n=4) in a 48-well culture plate. After 24 h of cell growth, the medium was removed and the cells were incubated with the experimental medium containing KNPs-9HSA (50 μM of 9-HSA) and free 9-HSA. Twenty-four hours after treatment, cells were detached and counted.

The test system of experiment [2] is HT29 cells. The experiment in a line: Cell cycle analysis by flow cytometry (PI). In kind it is cell-based, human. Conditions: HT29, 50 μM of 9-HSA, 24 h. The procedure:
Cell cycle analysis was performed as follows: 5.0×10^3 HT29 cells were seeded in 200 μl of growth medium in a 48-well culture plate. After 24 h of cell growth, the medium was removed and the cells were incubated with the experimental medium containing KER-NPs-9HSA (50 μM of 9-HSA) and free 9-HSA. Twenty-four hours after treatment, cells were trypsinized, washed twice with PBS and then centrifuged. Cells pellet was re-suspended in 0.01% Nonidet-P40 (Sigma-Aldrich), 10 μg/mL of RNasi (Sigma-Aldrich), 0.1% of sodium citrate (Sigma-Aldrich), 50 μg/mL di propidium iodide (PI) (Sigma-Aldrich), and kept in the dark for 30 min at room temperature. Florescence was detected by a flow cytometry (Beckman Coulter Epics XL-MCL), while cell cycle analysis was performed with Cell Cycle program (MODEFIT 5.0).
For orientation: Flow cytometry measures light scatter and fluorescence of single cells or particles in a stream.

The values below come from patent publication US11344499B2, “Nanoparticles as delivery vehicles of active ingredients and methods for the production thereof” (CONSIGLIO NAZIONALE DELLE RICERCHE, priority 2017, dated 2022).

As to `CCCCCCCCCC(O)CCCCCCCC(=O)O` (centres unmarked) [Entry 9-HSA, 9-hydroxystearic acid], the “tumor cell proliferation (number of alive cells)” value in the experiment with HT29 cells [1] is reported as “inhibit tumor cell proliferation”. Besides, the cell cycle effect result with HT29 cells [2] is on record as “blocks the cell cycle in the G0/G1 phase”.
